Results: patent US20080194646A1, “Methods For Avoiding Edema in the Treatment of Metabolic, Inflammatory, and Cardiovascular Disorders” (priority 2005, published 2008)

Test system: C57BL/6j ob/ob Mice
Test: anti-diabetic activity in C57BL/6j ob/ob mice (Example 20)
Type: in vivo
Conditions: oral gavage once a day for 1-4 days; for Potency: glucose lowering, plasma glucose 6 hours after each dose
Experimental: The anti-diabetic activities of the compounds were evaluated in the C57BL/6j ob/ob Mice model. Male, 7-9 weeks old, C57BL/6J ob/ob mice were purchased from The Jackson Laboratory (Bar Harbor, Me., USA). Animals were housed (4-5 mice/cage) under standard laboratory conditions at 22±3° C. temperature and 50±20% relative humidity, and were maintained on a diet of Purina rodent chow and water ad libitum. Prior to treatment, blood was collected from the tail vein of each animal. Mice that had non-fasting plasma glucose levels between 250 and 500 mg/dl were used. Each treatment group consisted of 8-10 mice that were distributed so that the mean glucose levels were equivalent in each group at the start of the study. Mice were dosed orally by gavage once a day for 1-4 days with vehicle and one or more dose of test compound at a dose ranging from 5 to 125 mg/kg. Compounds were delivered in a liquid formulation containing 5% (v/v) dimethyl sulfoxide (DMSO), 1% (v/v) Tween 80® and 0.9% (w/v) methylcellulose. The gavage volume was 10 ml/kg. […] Food intake and body weight were measured daily. Plasma glucose concentrations were determined colorimetrically using a commercial glucose oxidase method (Sigma Chemical Co, St. Louis, Mo., USA). Significant difference between groups (comparing drug-treated to vehicle-treated) was evaluated using the Student unpaired t-test. Table 1 provides the relative potency of some selected compounds of the invention.

SMILES | Potency | Insulin Level compared with vehicle
O=C(O)C(Oc1ccc(C(F)(F)F)cc1)c1ccc(C(F)(F)F)cc1 (stereo not shown) [Compound 83] | ++ (effective for glucose lowering at the dose of ≦125 mg/kg) | Lower
O=C(O)C(Oc1ccc(C(F)(F)F)cc1Cl)c1cccc(C(F)(F)F)c1 (stereo not shown) [Compound 85] | ++ (effective for glucose lowering at the dose of ≦125 mg/kg) | Lower
O=C(O)C(Oc1cccc(C(F)(F)F)c1)c1ccc(C(F)(F)F)cc1 (stereo not shown) [Compound 86] |  | Lower
O=C(O)C(Oc1ccc(C(F)(F)F)cc1Cl)c1ccc(C(F)(F)F)cc1 (stereo not shown) [Compound 89] | ++ (effective for glucose lowering at the dose of ≦125 mg/kg) | Lower
O=C(O)C(Oc1ccc(C(F)(F)F)cn1)c1cccc(C(F)(F)F)c1 (stereo not shown) [Compound 100, (3-Trifluoromethyl-phenyl)-(5-trifluoromethyl-pyridin-2-yloxy)-acetic acid] |  | Lower
CC(Oc1ccc(C(F)(F)F)cc1)(C(=O)O)c1cccc(C(F)(F)F)c1 (stereo not shown) [Compound 120, 2-(4-trifluoromethyl-phenoxy)-2-(3-trifluoromethyl-phenyl)-propionic acid] |  | Lower
CC(Oc1ccc(C(F)(F)F)cc1)(C(=O)O)c1ccc(C(F)(F)F)cc1 (stereo not shown) [Compound 121, 2-(4-Trifluoromethyl-phenoxy)-2-(4-trifluoromethyl-phenyl)-propionic acid] |  | Lower
OCC(Oc1ccc(C(F)(F)F)cc1)c1ccc(C(F)(F)F)cc1 (stereo not shown) [Compound 128] | ++ (effective for glucose lowering at the dose of ≦125 mg/kg) | Lower
CC(=O)NCCOC(=O)C(Oc1ccc(C(F)(F)F)cc1)c1cccc(C(F)(F)F)c1 (stereo not shown) [Compound 136, (4-trifluoromethyl-phenoxy)-(3-trifluoromethyl-phenyl)-acetic acid 2-acetylamino-ethyl ester] |  | Lower
CC(=O)NCCOC(=O)C(Oc1cccc(C(F)(F)F)c1)c1ccc(C(F)(F)F)cc1 (stereo not shown) [Compound 142] |  | Lower
CC(=O)NCCOC(=O)C(Oc1cc(C(F)(F)F)cc(C(F)(F)F)c1)c1ccc(C(F)(F)F)cc1 (stereo not shown) [Compound 143] |  | Lower
CC(=O)NCCOC(=O)C(Oc1cccc(C(F)(F)F)c1)c1cccc(C(F)(F)F)c1 (stereo not shown) [Compound 144] |  | Lower
CC(=O)NCCOC(=O)C(Oc1ccc(C(F)(F)F)cc1)c1ccc(C(F)(F)F)cc1 (stereo not shown) [Compound 145] |  | Lower
CC(=O)NCCOC(=O)C(Oc1ccccc1C(F)(F)F)c1ccc(C(F)(F)F)cc1 (stereo not shown) [Compound 146] |  | Lower
CC(=O)NCCOC(=O)C(Oc1cccc(C(F)(F)F)c1)c1ccccc1C(F)(F)F (stereo not shown) [Compound 147] |  | Lower
